According to the NIST ThermoML archive (doi:10.1016/j.jct.2012.06.031):
Numbers after ± are expanded uncertainties.

Test: xn = mol fraction of the nth substance listed
Conditions: 101 kPa, Liquid; for viscosity: Concentric cylinders viscometry; for mass density: Vibrating tube method

## OCCCO [propan-1,3-diol] + c1ccncc1
288.15 K, x2 = 0
  viscosity: 66.53 ± 0.72 mPa·s
  mass density: 1056.12 ± 0.95 kg/m3
288.15 K, x2 = 0.0999
  viscosity: 50.57 ± 0.47 mPa·s
  mass density: 1050.49 ± 0.79 kg/m3
288.15 K, x2 = 0.2
  viscosity: 35.44 ± 0.32 mPa·s
  mass density: 1044.96 ± 0.64 kg/m3
288.15 K, x2 = 0.3
  viscosity: 23 ± 0.19 mPa·s
  mass density: 1038.93 ± 0.51 kg/m3
288.15 K, x2 = 0.4001
  viscosity: 14.29 ± 0.11 mPa·s
  mass density: 1032.58 ± 0.39 kg/m3
288.15 K, x2 = 0.5
  viscosity: 8.708 ± 0.06 mPa·s
  mass density: 1025.96 ± 0.29 kg/m3
288.15 K, x2 = 0.5999
  viscosity: 5.207 ± 0.033 mPa·s
  mass density: 1018.97 ± 0.22 kg/m3
288.15 K, x2 = 0.7
  viscosity: 3.264 ± 0.019 mPa·s
  mass density: 1011.77 ± 0.17 kg/m3
288.15 K, x2 = 0.7998
  viscosity: 2.111 ± 0.013 mPa·s
  mass density: 1004.3 ± 0.14 kg/m3
288.15 K, x2 = 0.8998
  viscosity: 1.46 ± 0.01 mPa·s
  mass density: 996.608 ± 0.12 kg/m3
293.15 K, x2 = 0
  viscosity: 51.91 ± 0.53 mPa·s
  mass density: 1053.02 ± 0.95 kg/m3
293.15 K, x2 = 0.0999
  viscosity: 39.57 ± 0.39 mPa·s
  mass density: 1047.19 ± 0.78 kg/m3
293.15 K, x2 = 0.2
  viscosity: 27.99 ± 0.25 mPa·s
  mass density: 1041.48 ± 0.63 kg/m3
293.15 K, x2 = 0.3
  viscosity: 18.46 ± 0.15 mPa·s
  mass density: 1035.25 ± 0.5 kg/m3
293.15 K, x2 = 0.4001
  viscosity: 11.68 ± 0.088 mPa·s
  mass density: 1028.71 ± 0.39 kg/m3
293.15 K, x2 = 0.5
  viscosity: 7.266 ± 0.049 mPa·s
  mass density: 1021.91 ± 0.29 kg/m3
293.15 K, x2 = 0.5999
  viscosity: 4.467 ± 0.028 mPa·s
  mass density: 1014.73 ± 0.22 kg/m3
293.15 K, x2 = 0.7
  viscosity: 2.869 ± 0.017 mPa·s
  mass density: 1007.35 ± 0.17 kg/m3
293.15 K, x2 = 0.7998
  viscosity: 1.897 ± 0.012 mPa·s
  mass density: 999.687 ± 0.14 kg/m3
293.15 K, x2 = 0.8998
  viscosity: 1.336 ± 0.0099 mPa·s
  mass density: 991.803 ± 0.12 kg/m3
298.15 K, x2 = 0
  viscosity: 41.04 ± 0.44 mPa·s
  mass density: 1049.91 ± 0.94 kg/m3
298.15 K, x2 = 0.0999
  viscosity: 31.39 ± 0.31 mPa·s
  mass density: 1043.89 ± 0.77 kg/m3
298.15 K, x2 = 0.2
  viscosity: 22.36 ± 0.2 mPa·s
  mass density: 1037.98 ± 0.63 kg/m3
298.15 K, x2 = 0.3
  viscosity: 14.91 ± 0.12 mPa·s
  mass density: 1031.55 ± 0.5 kg/m3
298.15 K, x2 = 0.4001
  viscosity: 9.617 ± 0.072 mPa·s
  mass density: 1024.82 ± 0.38 kg/m3
298.15 K, x2 = 0.5
  viscosity: 6.147 ± 0.042 mPa·s
  mass density: 1017.85 ± 0.29 kg/m3
298.15 K, x2 = 0.5999
  viscosity: 3.867 ± 0.025 mPa·s
  mass density: 1010.48 ± 0.22 kg/m3
298.15 K, x2 = 0.7
  viscosity: 2.54 ± 0.016 mPa·s
  mass density: 1002.91 ± 0.17 kg/m3
298.15 K, x2 = 0.7998
  viscosity: 1.715 ± 0.011 mPa·s
  mass density: 995.061 ± 0.14 kg/m3
298.15 K, x2 = 0.8998
  viscosity: 1.228 ± 0.0096 mPa·s
  mass density: 986.987 ± 0.12 kg/m3
303.15 K, x2 = 0
  viscosity: 32.84 ± 0.35 mPa·s
  mass density: 1046.79 ± 0.93 kg/m3
303.15 K, x2 = 0.0999
  viscosity: 25.21 ± 0.25 mPa·s
  mass density: 1040.57 ± 0.77 kg/m3
303.15 K, x2 = 0.2
  viscosity: 18.15 ± 0.16 mPa·s
  mass density: 1034.47 ± 0.62 kg/m3
303.15 K, x2 = 0.3
  viscosity: 12.34 ± 0.1 mPa·s
  mass density: 1027.85 ± 0.49 kg/m3
303.15 K, x2 = 0.4001
  viscosity: 8.079 ± 0.061 mPa·s
  mass density: 1020.93 ± 0.38 kg/m3
303.15 K, x2 = 0.5
  viscosity: 5.244 ± 0.036 mPa·s
  mass density: 1013.76 ± 0.28 kg/m3
303.15 K, x2 = 0.5999
  viscosity: 3.38 ± 0.022 mPa·s
  mass density: 1006.21 ± 0.21 kg/m3
303.15 K, x2 = 0.7
  viscosity: 2.266 ± 0.015 mPa·s
  mass density: 998.466 ± 0.17 kg/m3
303.15 K, x2 = 0.7998
  viscosity: 1.557 ± 0.011 mPa·s
  mass density: 990.425 ± 0.14 kg/m3
303.15 K, x2 = 0.8998
  viscosity: 1.132 ± 0.0093 mPa·s
  mass density: 982.158 ± 0.12 kg/m3
308.15 K, x2 = 0
  viscosity: 26.58 ± 0.28 mPa·s
  mass density: 1043.64 ± 0.93 kg/m3
308.15 K, x2 = 0.0999
  viscosity: 20.48 ± 0.2 mPa·s
  mass density: 1037.24 ± 0.76 kg/m3
308.15 K, x2 = 0.2
  viscosity: 14.88 ± 0.13 mPa·s
  mass density: 1030.94 ± 0.62 kg/m3
308.15 K, x2 = 0.3
  viscosity: 10.26 ± 0.085 mPa·s
  mass density: 1024.12 ± 0.49 kg/m3
308.15 K, x2 = 0.4001
  viscosity: 6.845 ± 0.052 mPa·s
  mass density: 1017.01 ± 0.38 kg/m3
308.15 K, x2 = 0.5
  viscosity: 4.549 ± 0.032 mPa·s
  mass density: 1009.66 ± 0.28 kg/m3
308.15 K, x2 = 0.5999
  viscosity: 2.976 ± 0.019 mPa·s
  mass density: 1001.93 ± 0.21 kg/m3
308.15 K, x2 = 0.7
  viscosity: 2.033 ± 0.014 mPa·s
  mass density: 994 ± 0.17 kg/m3
308.15 K, x2 = 0.7998
  viscosity: 1.424 ± 0.01 mPa·s
  mass density: 985.773 ± 0.14 kg/m3
308.15 K, x2 = 0.8998
  viscosity: 1.05 ± 0.0091 mPa·s
  mass density: 977.312 ± 0.12 kg/m3
313.15 K, x2 = 0
  viscosity: 21.74 ± 0.23 mPa·s
  mass density: 1040.49 ± 0.92 kg/m3
313.15 K, x2 = 0.0999
  viscosity: 16.82 ± 0.17 mPa·s
  mass density: 1033.89 ± 0.76 kg/m3
313.15 K, x2 = 0.2
  viscosity: 12.32 ± 0.11 mPa·s
  mass density: 1027.39 ± 0.61 kg/m3
313.15 K, x2 = 0.3
  viscosity: 8.615 ± 0.071 mPa·s
  mass density: 1020.38 ± 0.48 kg/m3
313.15 K, x2 = 0.4001
  viscosity: 5.832 ± 0.044 mPa·s
  mass density: 1013.08 ± 0.37 kg/m3
313.15 K, x2 = 0.5
  viscosity: 3.951 ± 0.028 mPa·s
  mass density: 1005.55 ± 0.28 kg/m3
313.15 K, x2 = 0.5999
  viscosity: 2.636 ± 0.018 mPa·s
  mass density: 997.629 ± 0.21 kg/m3
313.15 K, x2 = 0.7
  viscosity: 1.835 ± 0.013 mPa·s
  mass density: 989.518 ± 0.17 kg/m3
313.15 K, x2 = 0.7998
  viscosity: 1.307 ± 0.01 mPa·s
  mass density: 981.102 ± 0.14 kg/m3
313.15 K, x2 = 0.8998
  viscosity: 0.975 ± 0.0089 mPa·s
  mass density: 972.452 ± 0.13 kg/m3
318.15 K, x2 = 0
  viscosity: 17.95 ± 0.19 mPa·s
  mass density: 1037.31 ± 0.91 kg/m3
318.15 K, x2 = 0.0999
  viscosity: 13.94 ± 0.14 mPa·s
  mass density: 1030.51 ± 0.75 kg/m3
318.15 K, x2 = 0.2
  viscosity: 10.31 ± 0.093 mPa·s
  mass density: 1023.82 ± 0.6 kg/m3
318.15 K, x2 = 0.3
  viscosity: 7.299 ± 0.06 mPa·s
  mass density: 1016.62 ± 0.48 kg/m3
318.15 K, x2 = 0.4001
  viscosity: 5.033 ± 0.038 mPa·s
  mass density: 1009.13 ± 0.37 kg/m3
318.15 K, x2 = 0.5
  viscosity: 3.455 ± 0.024 mPa·s
  mass density: 1001.41 ± 0.27 kg/m3
318.15 K, x2 = 0.5999
  viscosity: 2.35 ± 0.016 mPa·s
  mass density: 993.305 ± 0.21 kg/m3
318.15 K, x2 = 0.7
  viscosity: 1.663 ± 0.012 mPa·s
  mass density: 985.015 ± 0.17 kg/m3
318.15 K, x2 = 0.7998
  viscosity: 1.204 ± 0.0098 mPa·s
  mass density: 976.412 ± 0.14 kg/m3
318.15 K, x2 = 0.8998
  viscosity: 0.9082 ± 0.0088 mPa·s
  mass density: 967.572 ± 0.13 kg/m3
323.15 K, x2 = 0
  viscosity: 14.96 ± 0.16 mPa·s
  mass density: 1034.12 ± 0.91 kg/m3
323.15 K, x2 = 0.0999
  viscosity: 11.75 ± 0.12 mPa·s
  mass density: 1027.12 ± 0.74 kg/m3
323.15 K, x2 = 0.2
  viscosity: 8.779 ± 0.079 mPa·s
  mass density: 1020.24 ± 0.6 kg/m3
323.15 K, x2 = 0.3
  viscosity: 6.286 ± 0.052 mPa·s
  mass density: 1012.83 ± 0.47 kg/m3
323.15 K, x2 = 0.4001
  viscosity: 4.412 ± 0.034 mPa·s
  mass density: 1005.15 ± 0.36 kg/m3
323.15 K, x2 = 0.5
  viscosity: 3.078 ± 0.022 mPa·s
  mass density: 997.251 ± 0.27 kg/m3
323.15 K, x2 = 0.5999
  viscosity: 2.139 ± 0.015 mPa·s
  mass density: 988.961 ± 0.21 kg/m3
323.15 K, x2 = 0.7
  viscosity: 1.53 ± 0.011 mPa·s
  mass density: 980.49 ± 0.17 kg/m3
323.15 K, x2 = 0.7998
  viscosity: 1.119 ± 0.0096 mPa·s
  mass density: 971.701 ± 0.14 kg/m3
323.15 K, x2 = 0.8998
  viscosity: 0.8532 ± 0.0086 mPa·s
  mass density: 962.672 ± 0.13 kg/m3
